Source: the supplement of paper PMC11061612

How the values were obtained:
[1] = test system: Becker (Low Grade Glioma); assay: Bliss excess, mean over the matrix (fraction); higher = more synergy
In short: (§1)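 Cell lines in DMEM/F12 or RPMI with 10% FBS were plated in 1536-well plates, held 24 hours at 37°C, 5% CO2, then given two-drug dose matrices for 72 hours (DMSO typically 0.2%). Viability was read by CellTiter-Glo 2.0 luminescence and scaled as inhibition from 0 (vehicle wells) to 1 (blank wells). Combination Emax is the second-highest inhibition in the matrix; Bliss excess is observed combination effect minus expected EA + EB − EA·EB, EA and EB being single-agent effects.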

CHL-1 (Melanoma) [2] = assay: as above
In short: as §1

[3] = test system: CML-T1 (Chronic Myelogenous Leukemia); assay: as above
In short: as §1

[4] = test system: COLO-684 (Endometrial Carcinoma); assay: as above
In short: as §1

[5] = test system: EB-3 (Burkitt's Lymphoma); assay: as above
In short: as §1

[6] = test system: FLO-1 (Esophageal Adenocarcinoma); assay: as above
In short: as §1

[7] = test system: HCC-44 (Lung Adenocarcinoma); assay: as above
In short: as §1

KYM-1 (Rhabdomyosarcoma) [8] = assay: as above
In short: as §1

[9] = test system: KYSE-70 (Esophageal Squamous Cell Carcinoma); assay: as above
In short: as §1

[10] = test system: LAMA-84 (Chronic Myelogenous Leukemia); assay: as above
In short: as §1

[11] = test system: LOUCY (T-Lymphoblastic Leukemia); assay: as above
In short: as §1

[12] = test system: NCI-H1755 (Lung Adenocarcinoma); assay: as above
In short: as §1

[13] = test system: NCI-H810 (Non-Small Cell Lung Carcinoma); assay: as above
In short: as §1

[14] = test system: NKM-1 (Acute Myeloid Leukemia); assay: as above
In short: as §1

[15] = test system: OV-90 (Ovarian Carcinoma); assay: as above
In short: as §1

[16] = test system: PANC-02-03 (Pancreatic Carcinoma); assay: as above
In short: as §1

[17] = test system: PC-14 (Lung Adenocarcinoma); assay: as above
In short: as §1

[18] = test system: RMG-I (Ovarian Carcinoma); assay: as above
In short: as §1

[19] = test system: SK-MM-2 (Plasma Cell Myeloma); assay: as above
In short: as §1

[20] = test system: SW684 (Other Solid Carcinomas); assay: as above
In short: as §1

[21] = test system: Becker (Low Grade Glioma); assay: combination Emax (second highest fraction inhibited in the dose matrix, 72 h); higher = more inhibition; extreme values may be limits of the assay
In short: as §1

CHL-1 (Melanoma) [22] = assay: as above
In short: as §1

[23] = test system: CML-T1 (Chronic Myelogenous Leukemia); assay: as above
In short: as §1

[24] = test system: COLO-684 (Endometrial Carcinoma); assay: as above
In short: as §1

[25] = test system: EB-3 (Burkitt's Lymphoma); assay: as above
In short: as §1

[26] = test system: FLO-1 (Esophageal Adenocarcinoma); assay: as above
In short: as §1

[27] = test system: HCC-44 (Lung Adenocarcinoma); assay: as above
In short: as §1

KYM-1 (Rhabdomyosarcoma) [28] = assay: as above
In short: as §1

[29] = test system: KYSE-70 (Esophageal Squamous Cell Carcinoma); assay: as above
In short: as §1

[30] = test system: LAMA-84 (Chronic Myelogenous Leukemia); assay: as above
In short: as §1

[31] = test system: LOUCY (T-Lymphoblastic Leukemia); assay: as above
In short: as §1

[32] = test system: NCI-H1755 (Lung Adenocarcinoma); assay: as above
In short: as §1

[33] = test system: NCI-H810 (Non-Small Cell Lung Carcinoma); assay: as above
In short: as §1

[34] = test system: NKM-1 (Acute Myeloid Leukemia); assay: as above
In short: as §1

[35] = test system: OV-90 (Ovarian Carcinoma); assay: as above
In short: as §1

[36] = test system: PANC-02-03 (Pancreatic Carcinoma); assay: as above
In short: as §1

[37] = test system: PC-14 (Lung Adenocarcinoma); assay: as above
In short: as §1

[38] = test system: RMG-I (Ovarian Carcinoma); assay: as above
In short: as §1

[39] = test system: SK-MM-2 (Plasma Cell Myeloma); assay: as above
In short: as §1

[40] = test system: SW684 (Other Solid Carcinomas); assay: as above
In short: as §1
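Wherever Bliss excess, mean over the matrix is given: after 72 h of two-drug dosing.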

Structure (SMILES)	Bliss excess [1]	Bliss excess (CHL-1 (Melanoma) [2])	Bliss excess [3]	Bliss excess [4]	Bliss excess [5]	Bliss excess [6]	Bliss excess [7]	Bliss excess (KYM-1 (Rhabdomyosarcoma) [8])	Bliss excess [9]	Bliss excess [10]	Bliss excess [11]	Bliss excess [12]	Bliss excess [13]	Bliss excess [14]	Bliss excess [15]	Bliss excess [16]	Bliss excess [17]	Bliss excess [18]	Bliss excess [19]	Bliss excess [20]	combination Emax [21]	combination Emax (CHL-1 (Melanoma) [22])	combination Emax [23]	combination Emax [24]	combination Emax [25]	combination Emax [26]	combination Emax [27]	combination Emax (KYM-1 (Rhabdomyosarcoma) [28])	combination Emax [29]	combination Emax [30]	combination Emax [31]	combination Emax [32]	combination Emax [33]	combination Emax [34]	combination Emax [35]	combination Emax [36]	combination Emax [37]	combination Emax [38]	combination Emax [39]	combination Emax [40]
Cc1c2c(nn1C)CSCc1cc(n(C)n1)CSc1cc(c3ccccc3c1)OCCCc1c(C(=O)O)n(C)c3c-2c(Cl)ccc13 [AZD5991] + CC(=O)O[C@H]1C(=O)[C@@]2(C)[C@H]([C@H](OC(=O)c3ccccc3)[C@]3(O)C[C@H](OC(=O)[C@H](O)[C@@H](NC(=O)c4ccccc4)c4ccccc4)C(C)=C1C3(C)C)[C@]1(OC(C)=O)CO[C@@H]1C[C@@H]2O [Paclitaxel] (first compound max 1 µM, 7x7, partner max 3 µM)	0.0068	0.0482	-0.0139	0.0057	-0.0558	-0.0172	-0.0764	0.0663	0.0855	-0.0161	-0.051	-0.0385	0.125	0.0294	0.0575	-0.0131	-0.0298	-0.0514	0.0033	-0.0818	0.982	1	0.954	0.558	0.685	0.928	0.83	1	0.534	0.895	0.898	0.734	0.871	1	0.379	0.427	0.947	0.322	0.34	0.52
Cc1c2c(nn1C)CSCc1cc(n(C)n1)CSc1cc(c3ccccc3c1)OCCCc1c(C(=O)O)n(C)c3c-2c(Cl)ccc13 [AZD5991] + CS(=O)(=O)CCNCc1ccc(-c2ccc3ncnc(Nc4ccc(OCc5cccc(F)c5)c(Cl)c4)c3c2)o1 [Lapatinib] (first compound max 1 µM, 7x7, partner max 10 µM)	-0.0011	0.0766	0.0228	-0.114	-0.0068	-0.0454	-0.0301	0.0243	-0.0329	0.0258	0.0351	-0.015	-0.0722	-0.0148	-0.0817	-0.0159	0.0203	0.0088	-0.0011	-0.116	0.277	0.835	0.24	0.421	0.6	0.537	0.352	0.589	0.177	0.165	0.688	0.755	0.261	0.995	0.247	0.368	0.963	0.532	0.115	0.177
Cc1c2c(nn1C)CSCc1cc(n(C)n1)CSc1cc(c3ccccc3c1)OCCCc1c(C(=O)O)n(C)c3c-2c(Cl)ccc13 [AZD5991] + Nc1ccn([C@@H]2O[C@H](CO)[C@@H](O)C2(F)F)c(=O)n1 [Gemcitabine] (first compound max 1 µM, 7x7, partner max 0.3 µM)	-0.033	0.0685	-0.0219	-0.0376	0.0273	-0.0134	-0.0513	0.0209	-0.0423	0.0095	0.131	0.0224	0.0467	-0.0275	-0.0251	-0.053	0.0171	-0.0592	-0.0172	-0.0767	0.567	0.785	0.991	0.573	0.377	0.823	0.598	1	0.141	0.939	0.774	0.435	0.597	1	0.505	0.366	0.692	0.367	0.351	0.253
C[C@@H]1COCCN1c1cc(C2([S@](C)(=N)=O)CC2)nc(-c2ccnc3[nH]ccc23)n1 [AZD6738] + Nc1ccn([C@@H]2O[C@H](CO)[C@@H](O)C2(F)F)c(=O)n1 [Gemcitabine] (first compound max 10 µM, 7x7, partner max 0.3 µM)	0.0762	0.0858	0.0987	-0.0731	0.007	0.124	0.0963	0.0132	-0.0006	0.0674	0.0579	0.0444	0.0805	-0.0345	-0.0129	-0.0067	0.0058	-0.0514	0.114	0.0693	0.808	0.902	1	0.733	0.847	0.949	0.844	1	0.504	0.976	1	0.812	0.794	1	0.573	0.579	0.869	0.48	0.572	0.559
Cc1cc2ncnn2cc1Nc1ncc2c(n1)n(C1CCOCC1)c(=O)n2C [AZD7648] + COc1cc([C@@H]2c3cc4c(cc3[C@@H](O[C@@H]3O[C@@H]5CO[C@@H](C)O[C@H]5[C@H](O)[C@H]3O)[C@H]3COC(=O)[C@H]23)OCO4)cc(OC)c1O [Etoposide] (first compound max 10 µM, 7x7, partner max 10 µM)	0.096	0.0767	0.0779	-0.0174	0.0374	0.0863	0.0009	0.119	-0.0437	0.154	0.0421	0.0418	-0.079	0.106	-0.0525	0.0386	0.097	0.01	0.0378	-0.0208	0.748	0.82	1	0.497	0.942	0.85	0.809	0.927	0.168	0.948	0.968	0.486	0.598	0.976	0.399	0.378	0.757	0.386	0.437	0.428
C[C@@H](Nc1cc(F)cc(F)c1)c1cc(C(=O)N(C)C)cc2c(=O)cc(N3CCOCC3)oc12 [AZD8186] + C1CN(CCC1(C(=O)N[C@@H](CCO)C2=CC=C(C=C2)Cl)N)C3=NC=NC4=C3C=CN4 [AZD5363] (first compound max 10 µM, 7x7, partner max 10 µM)	0.0295	-0.0392	-0.0629	-0.0839	-0.0203	-0.0114	-0.0319	-0.0245	-0.0493	-0.0192	0.0819	-0.0436	-0.099	-0.0454	-0.0556	-0.0364	0.0006	-0.0317	-0.0255	-0.0408	0.646	0.433	0.53	0.615	0.324	0.43	0.609	0.4	0.233	0.198	0.494	0.642	0.17	0.615	0.208	0.237	0.399	0.401	0.202	0.572
